Patent US20020086895A1, “Methods of treating fungal infections” (priority 1985, published 2002)

Key:
[1] = tested on: C. albicans; test: Antifungal screen of matrix-synthesis aurones in 96-well plates, C. albicans; format: cell-based, Candida albicans
Description: (§1) Thirty-eight 96-well plates were prepared with the above samples and tested against both C. albicans and A. fumigatus at either 8 μg/ml or 12.5 μg/ml. Plates with high activity were retested at the same concentration to confirm activity.
(§2) These compounds have formulae where W′ is OH, V is 3′,4′-(1,1-dimethylpropyloxy) to form a dihydropyran series, and X is selected from 3,4-dimethoxyphenyl, 4-t-butylphenyl, 2(prop-2-enyloxy)phenyl, 3-phenoxyphenyl, 3-ethoxy-4-hydroxyphenyl, 6-cyclohexenyl, and norborn-4-yl.

[2] = tested on: A. fumigatus; test: Antifungal screen of matrix-synthesis aurones in 96-well plates, A. fumigatus; format: cell-based, Aspergillus fumigatus
Description: as §1, §2

[3] = tested on: Staphylococcus aureus KLE820; test: Activity of selected aurones against Staphylococcus aureus KLE820; format: cell-based; conditions: read-out: % Inhibition of growth at 10 ug/ml
Text: Compounds described herein also have activity against bacteria.

[4] = tested on: Candida albicans (strain ATCC #90028); test: Inhibition of Candida spp. culture (XTT); format: cell-based; conditions: assay validation
Description: Candida albicans (strain ATCC #90028), Candida krusei (strain ATCC #90030), and Torulopsis (Candida) glabrata (strain ATCC #6258) were subcultured from cryopreserved stocks onto sabourand dextrose agar plates. Blastoconidia were suspended into RPMI-MOPS (media) and inoculated (500 cfu/well) into 96-well plates containing test compounds in a final volume of 100 μL/well. After 22 hours at 35° C., 25 μL of XTT (2,3-bis(2-methoxy-4-nitro-5-sulfophenyl)-5-[(phenylamino)carbonyl]-2H-tetrazolium hydroxide), (100 μg/mL) with PMS (phenazine methyl sulfate, 5 μM) were added to each well, followed by 2 hours of shaking. Growth was assessed spectrophotometrically by measuring the appearance of soluble formazan stain at 450 nm using an Emax microplate reader.

Row | SMILES | CA percent inhibition ([1]; @8 μg/ml) | AF percent inhibition ([2]; @8 μg/ml) | CA percent inhibition ([1]; @12.5 μg/ml) | AF percent inhibition ([2]; @12.5 μg/ml) | also measured
1 | CCOc1ccccc1C=C1Oc2cc3c(c(O)c2C1=O)CCC(C)(C)O3 | 80% | 71% |  |  | 
2 | CC(C)=CCc1c(O)cc2c(c1O)C(=O)C(=Cc1ccc(O)c(O)c1O)O2 |  |  | 89% | 0% | 
3 | C=CCOc1ccccc1C=C1Oc2cc3c(c(O)c2C1=O)CCC(C)(C)O3 | 67% | 94% |  |  | 
4 | C=CCc1c(O)cc2c(c1O)C(=O)C(=Cc1ccc(O)c(O)c1O)O2 | 69% | 35% |  |  | 
5 | O=C1/C(=C/c2cc([N+](=O)[O-])ccc2O)Oc2cc(O)c(Cc3ccccc3)c(O)c21 |  |  |  |  | inhibition at 10 µg/mL [3]: 100%
6 | CCc1ccc(C=C2Oc3cc(O)c(CC=C(C)C)c(O)c3C2=O)cc1 |  |  | 31% | 41% | 
7 | O=C1C(=Cc2cccc(O)c2O)Oc2cc(O)cc(O)c21 |  |  | 79% | 27% | 
8 | CCOc1ccc(C=C2Oc3cc(O)cc(O)c3C2=O)cc1OC |  |  |  | CA 0% AF 0% @12.5 μg/ml | 
9 | C=CCc1c(O)cc2c(c1O)C(=O)C(=Cc1ccccc1C)O2 | 4% | 11% |  |  | 
10 | CC1(C)CCc2c(cc3c(c2O)C(=O)C(=Cc2ccc(O)c(O)c2)O3)O1 | 87% | 0% |  |  | 
11 | C=CCc1c(O)cc2c(c1O)C(=O)C(=Cc1ccccc1OC)O2 | 20% | 62% |  |  | 
12 | CC(C)=CCc1c(O)cc2c(c1O)C(=O)C(=Cc1ccc(Oc3ccccc3)cc1)O2 |  |  |  | CA 0% AF 0% @12.5 μg/ml | 
13 | Cc1cc(C)c(C=C2Oc3cc4c(c(O)c3C2=O)CCC(C)(C)O4)c(C)c1 | 0% | 28% |  |  | 
14 | C=CCOc1ccccc1C=C1Oc2cc(O)c(CC=C(C)C)c(O)c2C1=O |  |  | 59% | 40% | 
15 | C=CCc1c(O)cc2c(c1O)C(=O)C(=Cc1c(C)cccc1C)O2 | 7% | 49% |  |  | 
16 | COc1ccccc1C=C1Oc2cc(O)cc(O)c2C1=O |  |  |  | CA 0% AF 0% @12.5 μg/ml | 
17 | COc1ccccc1C=C1Oc2cc(O)c(CC=C(C)C)c(O)c2C1=O |  |  | 15% | 39% | 
18 | CC(C)=CCc1c(O)cc2c(c1O)C(=O)C(=Cc1c(C)cc(C)cc1C)O2 |  |  | 51% | 53% | 
19 | CC1(C)CCc2c(cc3c(c2O)C(=O)C(=Cc2ccc(F)cc2F)O3)O1 | 0% | 94% |  |  | 
20 | CC(C)=CCc1c(O)cc2c(c1O)C(=O)C(=Cc1cc(C(C)(C)C)c(O)c(C(C)(C)C)c1)O2 |  |  | 47% | 48% | 
21 | C=CCc1c(O)cc2c(c1O)C(=O)C(=Cc1ccccc1OCC)O2 | 22% | 52% |  |  | 
22 | Cc1ccccc1C=C1Oc2cc3c(c(O)c2C1=O)CCC(C)(C)O3 | 13% | 34% |  |  | 

Row | SMILES | CA percent inhibition ([1]; @8 μg/ml) | AF percent inhibition ([2]; @8 μg/ml) | CA percent inhibition ([1]; @12.5 μg/ml) | AF percent inhibition ([2]; @12.5 μg/ml) | also measured
23 | CCOc1ccc(C=C2Oc3cc(O)c(CC=C(C)C)c(O)c3C2=O)cc1OC |  |  | 25% | 49% | 
24 | CCOc1ccccc1C=C1Oc2cc(O)cc(O)c2C1=O |  |  |  | CA 0% AF 0% @12.5 μg/ml | 
25 | CC1(C)CCc2c(cc3c(c2O)C(=O)C(=Cc2cc(C(C)(C)C)c(O)c(C(C)(C)C)c2)O3)O1 | 69% | 68% |  |  | 
26 | CC1(C)CCc2c(cc3c(c2O)C(=O)C(=Cc2ccc(Oc4ccccc4)cc2)O3)O1 | 80% | 76% |  |  | 
27 | CC(C)(C)c1cc(C=C2Oc3cc(O)cc(O)c3C2=O)cc(C(C)(C)C)c1O |  |  | 17% | 35% | 
28 | C=CCc1c(O)cc2c(c1O)C(=O)C(=Cc1cccc(O)c1O)O2 | 45% | 0% |  |  | 
29 | O=C1C(=Cc2ccc(F)cc2F)Oc2cc(O)cc(O)c21 |  |  | 0% | 43% | 
30 | Cc1cccc(C)c1C=C1Oc2cc3c(c(O)c2C1=O)CCC(C)(C)O3 | 82% | 97% |  |  | 
31 | CC1(C)CCc2c(cc3c(c2O)C(=O)C(=Cc2cccc(O)c2O)O3)O1 | 96% | 52% |  |  | 
32 | CC1(C)CCc2c(cc3c(c2O)C(=O)C(=Cc2ccc(O)c(O)c2O)O3)O1 | 0% | 69% |  |  | 
33 | C=CCc1c(O)cc2c(c1O)C(=O)C(=Cc1ccc(O)c(O)c1)O2 | CA 0% AF 0% @8 μg/ml | CA 0% AF 0% @8 μg/ml |  |  | 
34 | Cc1ccc(C=C2Oc3cc4c(c(O)c3C2=O)CCC(C)(C)O4)cc1 | 58% | 93% |  |  | 
35 | CCc1ccc(C=C2Oc3cc4c(c(O)c3C2=O)CCC(C)(C)O4)cc1 | 73% | 68% |  |  | 
36 | COc1ccccc1C=C1Oc2cc3c(c(O)c2C1=O)CCC(C)(C)O3 | 76% | 70% |  |  | 
37 | O=C1C(=Cc2ccc(O)c(O)c2O)Oc2cc(O)cc(O)c21 |  |  | 94% | 44% | 
38 | Cc1ccc(C=C2Oc3cc(O)cc(O)c3C2=O)cc1 |  |  |  | CA 0% AF 0% @12.5 μg/ml | 
39 | CCOc1ccccc1C=C1Oc2cc(O)c(CC=C(C)C)c(O)c2C1=O |  |  | 25% | 51% | 
40 | CC(C)=CCc1c(O)cc2c(c1O)C(=O)C(=Cc1cc(C)cc(C)c1)O2 |  |  | CA 26% AF | #13% @12.5 μg/ml | 
41 | CC(C)=CCc1c(O)cc2c(c1O)C(=O)C(=Cc1cccc(O)c1O)O2 |  |  | 94% | 31% | 
42 | C=CCc1c(O)cc2c(c1O)C(=O)C(=Cc1ccc(Oc3ccccc3)cc1)O2 | 52% | 68% |  |  | 
43 | C=CCc1c(O)cc2c(c1O)C(=O)C(=Cc1ccc(OCC)c(OC)c1)O2 | 65% | 69% |  |  | 
44 | C=CCc1c(O)cc2c(c1O)C(=O)C(=Cc1cc(C)cc(C)c1)O2 | CA 42% AF | #81% @8 μg/ml |  |  | 

Row | SMILES | CA percent inhibition ([1]; @8 μg/ml) | AF percent inhibition ([2]; @8 μg/ml) | CA percent inhibition ([1]; @12.5 μg/ml) | AF percent inhibition ([2]; @12.5 μg/ml) | also measured
45 | CC(C)=CCc1c(O)cc2c(c1O)C(=O)C(=Cc1ccc(O)c(O)c1)O2 [drawing 36+drawing 32] |  |  | 92% | 0% | 
46 | C=CCc1c(O)cc2c(c1O)C(=O)C(=Cc1ccc(CC)cc1)O2 | 16% | 47% |  |  | 
47 | CC(C)=CCc1c(O)cc2c(c1O)C(=O)C(=Cc1c(C)cccc1C)O2 |  |  | 7% | 0% | 
48 | O=C1C(=Cc2ccc(Oc3ccccc3)cc2)Oc2cc(O)cc(O)c21 |  |  | 57% | 48% | 
49 | C=CCc1c(O)cc2c(c1O)C(=O)C(=Cc1ccc(F)cc1F)O2 | 53% | 96% |  |  | 
50 | Cc1cc(C)cc(C=C2Oc3cc(O)cc(O)c3C2=O)c1 |  |  | CA 4% AF | #17% @12.5 μg/ml | 
51 | Cc1cccc(C)c1C=C1Oc2cc(O)cc(O)c2C1=O |  |  |  | CA 0% AF 0% @12.5 μg/ml | 
52 | Cc1cc(C)c(C=C2Oc3cc(O)cc(O)c3C2=O)c(C)c1 |  |  | 6% | 48% | 
53 | CC(C)=CCc1c(O)cc2c(c1O)C(=O)C(=Cc1ccccc1C)O2 |  |  | 11% | 0% | 
54 | Cc1cc(C)cc(C=C2Oc3cc4c(c(O)c3C2=O)CCC(C)(C)O4)c1 | CA 0% AF | #11% @8 μg/ml |  |  | 
55 | O=C1C(=Cc2ccc(O)c(O)c2)Oc2cc(O)cc(O)c21 |  |  | 95% | 36% | 
56 | C=CCc1c(O)cc2c(c1O)C(=O)C(=Cc1cc(C(C)(C)C)c(O)c(C(C)(C)C)c1)O2 | 49% | 60% |  |  | 
57 | C=CCOc1ccccc1C=C1Oc2cc(O)c(CC=C)c(O)c2C1=O | 53% | 96% |  |  | 
58 | C=CCOc1ccccc1C=C1Oc2cc(O)cc(O)c2C1=O |  |  | 0% | 43% | 
59 | Cc1ccccc1C=C1Oc2cc(O)cc(O)c2C1=O |  |  |  | CA 0% AF 0% @12.5 μg/ml | 
60 | CCc1ccc(C=C2Oc3cc(O)cc(O)c3C2=O)cc1 |  |  |  | CA 0% AF 0% @12.5 μg/ml | 
61 | C=CCc1c(O)cc2c(c1O)C(=O)C(=Cc1c(C)cc(C)cc1C)O2 | 16% | 7% |  |  | 
62 | CC(C)=CCc1c(O)cc2c(c1O)C(=O)C(=Cc1ccc(C)cc1)O2 |  |  | CA 18% AF 18% @12.5 μg/ml | CA 18% AF 18% @12.5 μg/ml | 
63 | CC(C)=CCc1c(O)cc2c(c1O)C(=O)C(=Cc1ccc(F)cc1F)O2 |  |  | 0% | 40% | 
64 | CCOc1ccc(C=C2Oc3cc4c(c(O)c3C2=O)CCC(C)(C)O4)cc1OC | 58% | 67% |  |  | 
65 | C=CCc1c(O)cc2c(c1O)C(=O)C(=Cc1ccc(C)cc1)O2 | 10% | 47% |  |  | 
66 | NC(=O)OC[C@H](O)[C@@H](O)[C@H](N)C(=O)N[C@H](C(=O)O)[C@H]1O[C@@H](n2cc(C(=O)O)c(=O)[nH]c2=O)[C@H](O)[C@@H]1O [polyoxin D] |  |  |  |  | C. albicans minimum inhibitory concentration (MIC) compared with reported ranges [4]: within reported ranges
